Source: publication PMC8498107 (Frontiers in Molecular Neuroscience, 2021)

Columns and labels:
[1] = target: T1, GlyR α1β (wild-type) + eGFP-gephyrin (Homo sapiens, UniProt P23415+P48167); format: cell-based
T1 construct: Full-length cDNAs encoding the human wild-type (WT) or mutated GlyR β variants; expressed in transfected cells; host or cells: HEK-293
Procedure: (§1) Full-length cDNAs encoding the human wild-type (WT) or mutated GlyR β variants (β^x) (with x = Y252S, S321F, and A455P) were cloned into the eukaryotic expression vector pRK5 (gift from †P. Seeburg, Heidelberg) and mutagenesis was performed as previously described ([James et al., 2013]). GlyR β variants were further subcloned into pRK5 harboring a myc-epitope at the N-terminus 5′ of residues ^1KEKS^4 representing the first amino acids of the mature GlyR β sequence. eGFP-gephyrin constructs were previously described ([Harvey et al., 2004]). All expression constructs were fully sequenced to verify successful mutagenesis.
(§2) HEK-293 cells were transiently transfected using a modified calcium-phosphate precipitation method. Transfection was performed at a confluency of 50–75%, 24 h after seeding of 200,000 cells on glass cover slips in 35 mm culture dishes or 1.5 × 10^6 cells per 10 cm dish. For 35 mm and 10 cm culture dishes GlyR α1, GlyR β or GlyR β variants and eGFP-gephyrin were transfected in a ratio of cDNAs 1:10:5, e.g., 0.2 μg α1, 2 μg β, and 1 μg of eGFP-gephyrin for 35 mm dishes. To label cellular compartments, low copy number vectors were used to exclude effects from overexpression [1 μg; dsRed MEM = fusion of sequence from neuromodulin (GAP-43) and dsRed to label the plasma membrane or dsRed ER = fusion construct of dsRed and calreticulin sequence to label the ER]. The DNA was supplied with 2.5 M CaCl2, 0.1x TE buffer and 2x HBS buffer (50 mM HEPES, 12 mM glucose, 10 mM KCl, 280 mM NaCl, 1.5 mM Na2HPO4) mixed and incubated for 20 min at room temperature. The medium was exchanged after 4–6 h and cells were used for experiments 24–48 h after transfection.
(§3) Electrophysiological characterization was performed on transfected HEK-293 cells using the patch-clamp method for whole cell recordings. Experiments were performed at room temperature. […] Current responses were amplified with an EPC-9 amplifier (HEKA Elektronik GmbH, Lambrecht/Pfalz, Germany) and measured at a holding potential of −60 mV using PatchMaster Next software (HEKA Elektronik GmbH, Lambrecht/Pfalz, Germany).

GlyR α1β^A455P = target: T2, GlyR α1β^A455P (Homo sapiens, UniProt P23415+P48167, A477P); format: cell-based
T2 construct: Full-length cDNAs encoding the human wild-type (WT) or mutated GlyR β variants; expressed in transfected cells; host or cells: HEK-293
Procedure: as §1, §2, §3

[2] = target: T3, GlyR α1β^A455P + eGFP-gephyrin (Homo sapiens, UniProt P23415+P48167, A477P); format: cell-based
T3 construct: Full-length cDNAs encoding the human wild-type (WT) or mutated GlyR β variants; expressed in transfected cells; host or cells: HEK-293
Procedure: as §1, §2, §3

[3] = target: T4, GlyR α1β^Y252S + eGFP-gephyrin (Homo sapiens, UniProt P23415+P48167, Y274S); format: cell-based
T4 construct: Full-length cDNAs encoding the human wild-type (WT) or mutated GlyR β variants; expressed in transfected cells; host or cells: HEK-293
Procedure: as §1, §2, §3

GlyR α1β^S321F = target: T5, GlyR α1β^S321F (Homo sapiens, UniProt P23415+P48167, S343F); format: cell-based
T5 construct: Full-length cDNAs encoding the human wild-type (WT) or mutated GlyR β variants; expressed in transfected cells; host or cells: HEK-293
Procedure: as §1, §2, §3

GlyR α1β^Y252S = target: T6, GlyR α1β^Y252S (Homo sapiens, UniProt P23415+P48167, Y274S); format: cell-based
T6 construct: Full-length cDNAs encoding the human wild-type (WT) or mutated GlyR β variants; expressed in transfected cells; host or cells: HEK-293
Procedure: as §1, §2, §3

GlyR α1β (wild-type) = target: T7, GlyR α1β (wild-type) (Homo sapiens, UniProt P23415+P48167); format: cell-based
T7 construct: Full-length cDNAs encoding the human wild-type (WT) or mutated GlyR β variants; expressed in transfected cells; host or cells: HEK-293
Procedure: as §1, §2, §3

[4] = target: T8, GlyR α1β^S321F + eGFP-gephyrin (Homo sapiens, UniProt P23415+P48167, S343F); format: cell-based
T8 construct: Full-length cDNAs encoding the human wild-type (WT) or mutated GlyR β variants; expressed in transfected cells; host or cells: HEK-293
Procedure: as §1, §2, §3

[5] = system: heteromeric αβ channels versus homomeric α subunit GlyRs; parameters: method as in Pribilla et al., 1992; details: heteromeric αβ channels almost unaffected; ref Pribilla et al., 1992; cited from earlier work
hyperekplexia phenotype = system: hyperekplexia phenotype; parameters: method as in Bode and Lynch, 2014; details: clinical, gain-of-function and loss-of-function mutations; ref Bode and Lynch, 2014; cited from earlier work
α1β^x channels = experiment: picrotoxinin block of the glycine-gated response, whole-cell patch-clamp in HEK-293 cells; format: cell-based, human; details: 100 μM glycine + 100 μM picrotoxinin compared to 100 μM glycine alone
Procedure: as §1
HEK-293 cells were transiently transfected using a modified calcium-phosphate precipitation method. Transfection was performed at a confluency of 50–75%, 24 h after seeding of 200,000 cells on glass cover slips in 35 mm culture dishes or 1.5 × 10^6 cells per 10 cm dish. […]
(§4) Electrophysiological characterization was performed on transfected HEK-293 cells using the patch-clamp method for whole cell recordings. […] Current responses were amplified with an EPC-9 amplifier (HEKA Elektronik GmbH, Lambrecht/Pfalz, Germany) and measured at a holding potential of −60 mV using PatchMaster Next software (HEKA Elektronik GmbH, Lambrecht/Pfalz, Germany).

GlyR α1 homomers = target: T9, GlyR α1 homomers (Homo sapiens, UniProt P23415); experiment: as above; format: cell-based; details: 100 μM glycine + 100 μM picrotoxinin compared to 100 μM glycine alone
T9 construct: expressed in transfected cells; host or cells: HEK-293
T9 sequence (P23415 29-457): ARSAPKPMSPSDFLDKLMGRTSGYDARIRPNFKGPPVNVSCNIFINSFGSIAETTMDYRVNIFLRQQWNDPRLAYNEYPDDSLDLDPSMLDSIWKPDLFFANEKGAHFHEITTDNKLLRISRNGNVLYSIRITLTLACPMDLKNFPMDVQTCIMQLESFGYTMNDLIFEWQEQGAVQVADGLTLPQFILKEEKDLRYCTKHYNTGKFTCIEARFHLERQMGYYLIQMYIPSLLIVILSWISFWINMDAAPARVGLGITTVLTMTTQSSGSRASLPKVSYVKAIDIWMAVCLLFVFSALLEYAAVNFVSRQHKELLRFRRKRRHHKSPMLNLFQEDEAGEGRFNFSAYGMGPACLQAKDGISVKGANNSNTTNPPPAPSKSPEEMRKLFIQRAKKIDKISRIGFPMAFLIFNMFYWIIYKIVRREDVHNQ
Procedure: as §2, with “The medium was exchanged after 4–6 h and cells were used for experiments 24–48 h after transfection.” left out
as §4

[6] = in the presence of eGFP-gephyrin, remaining current, 100 μM glycine + 100 μM picrotoxinin versus 100 μM glycine alone
[7] = residual current, 100 μM picrotoxinin + 100 μM glycine versus 100 μM glycine alone

T4 sequence (P48167 23-497 Y274S, one chain of several): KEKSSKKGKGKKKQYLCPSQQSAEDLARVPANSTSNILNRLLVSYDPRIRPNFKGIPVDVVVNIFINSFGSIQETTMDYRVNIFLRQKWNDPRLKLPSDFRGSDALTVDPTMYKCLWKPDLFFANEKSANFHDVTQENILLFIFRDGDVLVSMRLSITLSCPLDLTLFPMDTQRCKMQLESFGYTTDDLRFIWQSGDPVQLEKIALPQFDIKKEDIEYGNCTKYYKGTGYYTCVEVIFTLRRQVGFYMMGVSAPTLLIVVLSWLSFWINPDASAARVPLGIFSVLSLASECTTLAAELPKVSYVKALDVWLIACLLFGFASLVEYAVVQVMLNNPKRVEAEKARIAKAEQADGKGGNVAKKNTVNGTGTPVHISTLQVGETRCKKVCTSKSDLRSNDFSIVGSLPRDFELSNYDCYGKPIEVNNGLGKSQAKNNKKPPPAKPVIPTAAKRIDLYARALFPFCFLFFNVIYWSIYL
T3 sequence (P48167 23-497 A477P, one chain of several): as the sequence (P48167 23-497 Y274S, one chain of several) above, with S252Y, A455P counted along it
T7 sequence (P48167 23-497, one chain of several): as the sequence (P48167 23-497 Y274S, one chain of several) above, with S252Y counted along it
T8 sequence (P48167 23-497 S343F, one chain of several): as the sequence (P48167 23-497 Y274S, one chain of several) above, with S252Y, S321F counted along it
T2 sequence (P48167 23-497 A477P, one chain of several): as the sequence (P48167 23-497 Y274S, one chain of several) above, with S252Y, A455P counted along it
T1 sequence (P48167 23-497, one chain of several): as the sequence (P48167 23-497 Y274S, one chain of several) above, with S252Y counted along it
T5 sequence (P48167 23-497 S343F, one chain of several): as the sequence (P48167 23-497 Y274S, one chain of several) above, with S252Y, S321F counted along it
T6 sequence (P48167 23-497 Y274S, one chain of several): as the sequence (P48167 23-497 Y274S, one chain of several) above

Question: Which Imax [1] does the source give for `NCC(=O)O` [glycine] here?
Answer: 2.9 ± 1.0 nA

Question: What about the Imax (GlyR α1β^A455P) of the same compound?
Answer: 9.5 ± 1.2 nA

Question: And the Imax [2]?
Answer: 6.6 ± 1.1 nA

Question: What about the Imax [3] of the same compound?
Answer: 3.7 ± 0.9 nA

Question: What about the Imax (GlyR α1β^S321F) of the same compound?
Answer: 5.1 ± 0.7 nA

Question: What about the Imax (GlyR α1β^Y252S) of the same compound?
Answer: 4.7 ± 0.6 nA

Question: What about the Imax (GlyR α1β (wild-type)) of the same compound?
Answer: 4.1 ± 0.4 nA

Question: What about the Imax [4] of the same compound?
Answer: 4.1 ± 0.7 nA

Question: Which “fold less effective on heteromeric αβ channels than on homomeric α subunit GlyRs” value [5] does the source give for picrotoxin here?
Answer: 50–200 fold

Question: For `O=C1CN=C(c2ccccc2Cl)c2cc([N+](=O)[O-])ccc2N1` [clonazepam], which “treatment of the hyperekplexia phenotype” value (hyperekplexia phenotype) is on record?
Answer: effective treatment in many cases

Question: Which “Ipicrotoxinin + glycine/ Iglycine” value [1, 6] does the source give for `C=C(C)[C@@H]1[C@H]2OC(=O)[C@@H]1[C@]1(O)C[C@H]3O[C@]34C(=O)O[C@H]2[C@]14C` [picrotoxinin] here?
Answer: 72 ± 7%

Question: And the “I 100 μM picrotoxinin + glycine/I 100 μM glycine” value (GlyR α1β^A455P; [7])?
Answer: 86 ± 10%

Question: And the “Ipicrotoxinin + glycine/ Iglycine” value [2, 6]?
Answer: 92 ± 17%

Question: And the “Ipicrotoxinin + glycine/ Iglycine” value [3, 6]?
Answer: 84 ± 9%

Question: What about the “I 100 μM picrotoxinin + glycine/I 100 μM glycine” value (GlyR α1β^S321F; [7]) of the same compound?
Answer: 111 ± 15%

Question: And the “I 100 μM picrotoxinin + glycine/I 100 μM glycine” value (GlyR α1β^Y252S; [7])?
Answer: 99 ± 19%

Question: What about the “I 100 μM picrotoxinin + glycine/I 100 μM glycine” value (GlyR α1β (wild-type); [7]) of the same compound?
Answer: 90 ± 11%

Question: And the “Ipicrotoxinin + glycine/ Iglycine” value [4, 6]?
Answer: 73 ± 4%

Question: What about the picrotoxinin block (α1β^x channels) of the same compound?
Answer: 0–19%

Question: And the “reduction in current amplitude of the original value (block of the glycine-gated response)” value (GlyR α1 homomers)?
Answer: 29.22%
